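Exposure lasted 48 hours, with cells grown in 96-well plates and compounds tested at five concentrations. GI50 = concentration required for 50% inhibition of growth. TGI is the concentration that stops growth completely.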
Assays:
Assay in all cases: growth of human tumour cells (NCI), 48 h
[1] = system: NCI-H460 lung
[2] = system: PC-3 prostate
[3] = system: KM12 colon
[4] = system: NCI-H226 lung
[5] = system: HCC-2998 colon
[6] = system: CCRF-CEM leukemia
[7] = system: SF-268 CNS
[8] = system: OVCAR-4 ovarian
[9] = system: RXF 393 renal
[10] = system: SR leukemia

SMILES | TGI [1] [µM] | TGI [2] [µM] | TGI [3] [µM] | TGI [4] [µM] | TGI [5] [µM] | TGI [6] [µM] | TGI [7] [µM] | TGI [8] [µM] | TGI [9] [µM] | TGI [10] [µM] | GI50 [1] [µM] | GI50 [3] [µM] | GI50 [4] [µM] | GI50 [5] [µM] | GI50 [7] [µM] | GI50 [8] [µM] | GI50 [10] [µM] | GI50 [9] [µM] | GI50 [2] [µM] | GI50 [6] [µM]
COc1cc(/C=C/C(=O)Oc2ccccc2)ccc1C(=O)O/C=C/c1ccccc1 | > 100 | > 100 | > 100 | > 100 | > 100 | > 100 | > 100 | > 100 | > 100 | – | – | – | – | – | – | – | – | – | – | –
CC(C)(C)OC(=O)N1C2CCCC23O[C@@H]1c1cc2c(cc1C3=O)OCO2 (stereo partly drawn) | > 100 | – | > 100 | > 100 | – | > 100 | > 100 | > 100 | 83.2 | > 100 | – | – | – | – | – | – | – | – | – | –
Cc1ccc2[c](c1)[Sn]([c]1ccccc1)([c]1ccccc1)[c]1cc(C)ccc1N2C | > 100 | – | > 100 | > 100 | > 100 | – | > 100 | > 100 | 31.8 | – | 51.2 | 29.8 | 49 | 26.4 | 48.4 | 41.6 | 0.116 | 11.3 | – | –
CNC(C)[C@H]1CCC2C3CC=C4C(=O)[C@@H](NC(=O)C=C(C)C)CC[C@]4(C)C3CC[C@@]21C (stereo partly drawn) | 2.76 | 11.5 | 10.3 | 14.1 | 3.02 | 7.8 | 3.66 | 17.9 | 3.22 | – | 1.26 | 2.46 | 2.53 | 0.626 | 1.6 | 2.22 | – | 1.45 | 1.9 | 1.77
COc1cc(C(=O)O[C@H](C(N)=O)[C@]2(C)CO2)c2cccc(C)c2c1 | > 32.1 | 2.76 | – | – | 0.54 | 5.94 | > 100 | > 26 | 1.1 | – | 0.395 | – | – | 0.0257 | – | – | – | 0.148 | – | –
O=C1c2ccccc2C(=O)N1C/C=N/NS(=O)(=O)c1ccc(Br)cc1 | > 100 | – | > 100 | > 100 | > 100 | > 100 | > 100 | > 100 | – | > 100 | – | – | – | – | – | – | – | – | – | –
CC1COS(=O)O1 (stereo not drawn) | > 100 | – | > 100 | > 100 | > 100 | > 100 | > 100 | > 100 | – | > 100 | – | – | – | – | – | – | – | – | – | –
O=C1C=CC(=CC=C2C=CN(CCCCCCCCCCC(=O)NCCCCCCCCCCCC(=O)O)C=C2)C=C1 | > 100 | – | > 100 | > 100 | > 100 | > 100 | > 100 | > 100 | > 100 | > 100 | – | – | – | – | – | – | – | – | – | –
COc1cc(/C=C/C(=O)C(C(=O)/C=C/c2ccc(OC(=O)CCNC34CC5CC(CC(C5)C3)C4)c(OC)c2)C(=O)CCNC23CC4CC(CC(C4)C2)C3)ccc1OC(=O)CCNC12CC3CC(CC(C3)C1)C2 (stereo not drawn) | 10.2 | 25.1 | 5.96 | 12.5 | 3.84 | 4.12 | 10.9 | 57.1 | 5.17 | – | 2.98 | 2.28 | 3.21 | 1.93 | 2.7 | 8.89 | – | 1.96 | 3.86 | 1.65
NC(=S)N/N=C1\CCCC\C1=C/c1ccccc1 | > 100 | – | > 100 | – | > 100 | > 100 | > 100 | > 100 | > 100 | – | – | – | – | – | – | – | – | – | – | –
C=C1C(=O)OC2C1CC(OC(C)=O)/C(C)=C/CCC1(C)OC21 (stereo not drawn) | > 100 | > 100 | > 100 | > 100 | > 100 | > 100 | > 100 | > 100 | – | – | – | – | – | – | – | – | – | – | – | –
C[Si](C)(C)CN1C(=O)c2ccccc2C1(O)c1ccccc1 (stereo not drawn) | > 100 | – | > 100 | > 100 | > 100 | > 100 | > 100 | > 100 | > 100 | > 100 | – | – | – | – | – | – | – | – | – | –
CCOC(=O)c1sc(NC(=O)COc2cccc(/C=C3\CCc4cc(OC)ccc4C3=O)c2)nc1C | 13.8 | – | 5.12 | > 100 | 38.8 | 4.3 | 12.3 | > 100 | 8.44 | – | 3.19 | 2.3 | 28.3 | 8.59 | 3.21 | 9.07 | – | 2.83 | – | 1.26
Cc1ccc(C)c(N2C(=O)C(=O)C(c3nc4ccccc4o3)/C(=N\NC(=O)c3ccccc3O)C2=O)c1 (stereo not drawn) | – | – | – | 88.6 | > 100 | 42.1 | > 100 | 69.6 | – | 76.2 | – | – | – | – | – | – | – | – | – | –
Cc1ccc(NC(=O)C(=O)C2C(=O)NC(=O)NC2=O)cc1C | > 100 | – | > 100 | > 100 | > 100 | > 100 | > 100 | > 100 | > 100 | > 100 | – | – | – | – | – | – | – | – | – | –
C1=NC(N(Cc2ccccc2)Cc2ccccc2)N(Cc2ccccc2)N1 (stereo not drawn) | 37.2 | – | 31.1 | 33.5 | 36.4 | > 100 | 47.4 | 36.7 | 30.4 | – | – | – | – | – | – | – | – | – | – | –
CSc1ccc2c(cc1=O)[C@@H](NC(=O)c1cc(O)c(O)c(O)c1)CCc1cc(O)c(O)c(O)c1-2 | 44.3 | – | 46.8 | 35 | > 100 | 18.1 | > 100 | 22.7 | – | 50.9 | – | – | – | – | – | – | – | – | – | –
CCCCCCCCCCCCCCCCCCC1=C(O)C(=O)C=C(OC)C1=O | > 100 | – | > 100 | > 100 | > 100 | – | > 100 | > 100 | > 100 | > 100 | – | – | – | – | – | – | – | – | – | –
Cc1ccc2c(c1-c1ccccc1)C(=O)OC2 | – | – | > 100 | > 100 | > 100 | > 100 | > 100 | > 100 | > 100 | > 100 | – | – | – | – | – | – | – | – | – | –
O=C1/C(=C/N2N=C(c3ccc4ccccc4c3)CC2c2ccccc2O)SC(=S)N1c1cccnc1 (stereo not drawn) | > 100 | > 100 | > 100 | > 100 | > 100 | > 100 | > 100 | > 100 | 8.19 | – | 0.514 | 0.473 | 4.9 | 3.06 | 4.08 | 4.41 | – | 1.6 | 0.518 | 0.625
